Test results published in US12139508B2, “Steroid derivative regulators, method for preparing the same, and uses thereof” (JIANGSU HANSOH PHARMACEUTICAL GROUP CO., LTD., priority 2018, dated 2024).

Target: GABA-A receptor
Test: 35S-TBPS binding assay (GABAA receptor binding ability test)
Design: species or system Sprague-Dawley rat
Conditions: rat cerebral cortex cell membrane, 5 μM GABA, 2 nM 35S-TBPS; read-out: 35S-TBPS bindng test: IC50 on inhibiting the TBPS binding activity
Description: 1.2 Experimental Procedures 1.2.1 Extraction of Cerebral Cortex Cell Membrane:
1. The cerebral cortex of male Sprague-Dawley rat was isolated.
2. A pre-chilled 0.32 M sucrose solution (one tablet of protease inhibitor was added per 100 ml) was added to the cerebral cortex (the volume of sucrose solution was 10 times the volume of the cerebral cortex). The mixture was crushed with a 50 mL glass tissue homogenizer in batches and mixed well.
3. The mixture was centrifuged at 1500 g, 4° C. for 10 minutes, and the supernatant was collected.
4. The mixture was centrifuged at 20000 g, 4° C. for 30 minutes, and the supernatant was discarded.
5. The precipitate was resuspended with the pre-chilled phosphate buffer saline (PBS) (one tablet of protease inhibitor was added per 100 ml). An average of 4 ml of PBS was added per rat, and the mixture was mixed well by a glass tissue homogenizer.
6. The mixture was centrifuged at 10000 g, 4° C. for 10 minutes, and the supernatant was discarded.
7. Steps 5 and 6 were repeated three times.
8. Finally, the precipitate was resuspended with 4 volumes of PBS. The resulting solution was dispensed, frozen in liquid nitrogen, and stored at −80° C.
9. The protein concentration was measured by the bicinchoninic acid (BCA) method.
1.2.2 ^35S-TBPS Binding Assay
1. 230 μL of PBS was added to each well of a well plate with 1.1 ml volume.
2. 60 μL of the cerebral cortex cell membrane (5 μg/μL) solution was added to each well, and the mixture was mixed well.
3. The test compound (3 μL per well) was added, and the plate was incubated at 25° C. for 5 minutes. The DMSO concentration was 1%. The initial compound concentration was 1 μM, and a 3-fold dilution in gradient was carried out to obtain a total of 8 gradients and 2 replicates. 1% DMSO was used as a negative control, and 10 μM P026-2 was used as a positive control.
4. GABA was added at a final concentration of 5 μM, and incubated at 25° C. for 5 minutes. 1 mM GABA solution was formulated, and 1.5 μL of the solution was added to each well.
5. ^35S-TBPS was added at a final concentration of 2 nM. The concentration of isotope mother solution was 9.7 μM. After dilution with PBS for 100 times, 6 μL of the diluted isotope solution was added to each well.
6. The plate was incubated at 4° C. for 20 hours.
7. The FilterMate GF/C plate was pre-treated with 0.5% PEI, and incubated at 4° C. for 1 hour.
8. The FilterMate GF/C plate was washed with Universal Harvester twice, 50 ml PBS each time.
9. The reaction solution was transferred to the GF/C plate, and each well was washed 4 times with 900 μL of PBS.
10. The washed GF/C plate was placed at 55° C. and dried for 10 minutes.
11. 40 μL of scintillation solution was added to each well, and the CPM value was read with TopCount.
1.2.3 Experimental Data Processing Method:
In the experiment, the CPM (counts per minute) value was read with TopCount. According to the readings of the High control (DMSO) and the Low control ([…] of the positive compound) experimental groups, the […] inhibition was calculated based on the following formula: % Inhibition=100×(CPMHigh control−CPMSample)/(CPMHigh control−CPMLow control)
The IC50 of the compound was calculated according to the following 4-parameter nonlinear logic formula: Y=Bottom+(Top−Bottom)/(1+10^((Log IC50−X)*Hill Slope)),
wherein: • X represents the log of compound concentration, • Y represents the 0 Inhibition.
The effect of the compound of the present invention on the TBPS binding activity was determined by the above test, and the measured IC50 values are shown in Table 1.

Compared with C[C@@]1(O)CC[C@H]2[C@H](CC[C@@H]3[C@@H]2CC[C@@]2(C)[C@H]3[C@@H]3C[C@@H]3[C@@H]2C(=O)Cn2cc3ccncc3n2)C1 [Example 41, 1-((2R,4aS,4bR,6aS,7S,7aS,8aR,8bR,8cR,10aR)-2-hydroxy-2,6a-dimethyloctadecahydrocyclopropa[4,5]cyclopenta[1,2-a]phenanthren-7-yl)-2-(2H-pyrazolo[3,4-c]pyridin-2-yl)ethan-1-one], C[C@@]1(O)CC[C@H]2[C@H](CC[C@@H]3[C@@H]2CC[C@@]2(C)[C@H]3[C@@H]3C[C@@H]3[C@@H]2C(=O)Cn2ncc3ccncc32)C1 [Example 42, 1-((2R,4aS,4bR,6aS,7S,7aS,8aR,8bR,8cR,10aR)-2-hydroxy-2,6a-dimethyloctadecahydrocyclopropa[4,5]cyclopenta[1,2-a]phenanthren-7-yl)-2-(1H-pyrazolo[3,4-c]pyridin-1-yl)ethan-1-one] is 1.7-fold higher in IC50: 22.7 nM for the first, 38.3 nM for the second. The first is the more potent here.

Going from C[C@@]1(O)CC[C@H]2[C@H](CC[C@@H]3[C@@H]2CC[C@@]2(C)[C@H]3[C@@H]3C[C@@H]3[C@@H]2C(=O)Cn2cc(F)cn2)C1 [Example 46, 2-(4-Fluoro-1H-pyrazol-1-yl)-1-((2R,4aS,4bR,6aS,7S,7aS,8aR,8bR,8cR,10aR)-2-hydroxy-2,6a-dimethyloctadecahydrocyclopropa[4,5]cyclopenta[1,2-a]phenanthren-7-yl)ethan-1-one] to CCOC(=O)c1cnn(CC(=O)[C@H]2[C@H]3C[C@H]3[C@H]3[C@@H]4CC[C@@H]5C[C@](C)(O)CC[C@@H]5[C@H]4CC[C@@]32C)c1 [Example 51, Ethyl 1-(2-((2R,4aS,4bR,6aS,7S,7aS,8aR,8bR,8cR,10aR)-2-hydroxy-2,6a-dimethyloctadecahydrocyclopropa[4,5]cyclopenta[1,2-a]phenanthren-7-yl)-2-oxoethyl)-1H-pyrazole-4-carboxylate], the IC50 falls from 28.7 nM to 5 nM (5.7-fold).

Compared with C[C@@]1(O)CC[C@H]2[C@H](CC[C@@H]3[C@@H]2CC[C@@]2(C)[C@H]3[C@@H]3C[C@@H]3[C@@H]2C(=O)Cn2cc(C(=O)N3CC(F)(F)C3)cn2)C1 [Example 52], COc1ccc2nn(CC(=O)[C@H]3[C@H]4C[C@H]4[C@H]4[C@@H]5CC[C@@H]6C[C@](C)(O)CC[C@@H]6[C@H]5CC[C@@]43C)nc2c1 [Example 53, 1-((2R,4aS,4bR,6aS,7S,7aS,8aR,8bR,8cR,10aR)-2-Hydroxy-2,6a-dimethyloctadecahydrocyclopropa[4,5]cyclopenta[1,2-a]phenanthren-7-yl)-2-(5-methoxy-2H-benzo[d][1,2,3]triazol-2-yl)ethan-1-one] is 5.3-fold lower in IC50: 65 nM for the first, 12.3 nM for the second.

COc1ccc2nnn(CC(=O)[C@H]3[C@H]4C[C@H]4[C@H]4[C@@H]5CC[C@@H]6C[C@](C)(O)CC[C@@H]6[C@H]5CC[C@@]43C)c2c1 [Example 54A, 1-((2R,4aS,4bR,6aS,7S,7aS,8aR,8bR,8cR,10aR)-2-Hydroxy-2,6a-dimethyloctadecahydrocyclopropa[4,5]cyclopenta[1,2-a]phenanthren-7-yl)-2-(6-methoxy-1H-benzo[d][1,2,3]triazol-1-yl)ethan-1-one] and COc1ccc2c(c1)nnn2CC(=O)[C@H]1[C@H]2C[C@H]2[C@H]2[C@@H]3CC[C@@H]4C[C@](C)(O)CC[C@@H]4[C@H]3CC[C@@]21C [Example 54B, 1-((2R,4aS,4bR,6aS,7S,7aS,8aR,8bR,8cR,10aR)-2-Hydroxy-2,6a-dimethyloctadecahydrocyclopropa[4,5]cyclopenta[1,2-a]phenanthren-7-yl)-2-(5-methoxy-1H-benzo[d][1,2,3]triazol-1-yl)ethan-1-one] are the same in IC50: 11.8 nM for the first, 11.8 nM for the second.

For Cc1nnn(CC(=O)[C@H]2C[C@@H](C)[C@H]3[C@@H]4CC[C@@H]5C[C@](C)(O)CC[C@@H]5[C@H]4CC[C@@]32C)n1 [Example 62, 1-((3R,5R,8R,9R,10S,13S,14S,15R,17S)-3-Hydroxy-3,13,15-trimethylhexadecahydro-1H-cyclopenta[a]phenanthren-17-yl)-2-(5-methyl-2H-tetrazol-2-yl)ethan-1-one], the IC50 was 5.4 nM.
